Measured values from ChEMBL document CHEMBL1152391, “Development of a selective and potent radioactive ligand for histamine H(3) receptors: A compound potentially useful for receptor occupancy studies” (Bioorg Med Chem Lett, 2009).
Calls of active or inactive are those of the source. No cut-off for these calls is given here.

Legend:
[1] = Drug level in Sprague-Dawley rat cerebrospinal fluid at 10 mg/kg, po after 2 hrs; type: ADME, organism-based; set-up: dose 10 mg/kg, route oral; details: read-out: Drug uptake
Histamine H3 receptor [2] = biological target: T1, Histamine H3 receptor (Mus musculus, UniProt P58406); assay: Inverse agonist activity at mouse histamine H3 receptor overexpressed in HEK293 cells by [35S]GTPgammaS binding assay; type: functional, cell-based
Brain [3] = assay: Drug level in Sprague-Dawley rat brain at 10 mg/kg, po after 2 hrs; type: ADME, organism-based; set-up: dose 10 mg/kg, route oral; details: in vivo
Histamine H4 receptor = Histamine H4 receptor (Homo sapiens, UniProt Q9H3N8); assay: Inhibition of histamine H4 receptor
[4] = Plasma concentration in Sprague-Dawley rat at 10 mg/kg, po after 2 hrs; type: ADME, organism-based; set-up: dose 10 mg/kg, route oral
Brain [5] = assay: Ex vivo binding affinity to histamine H3 receptor in wild type mouse coronal brain sections at 3 nM after 30 mins by receptor occupancy assay; type: functional, tissue-based; details: tested as the 3H-labelled form
Histamine H3 receptor [6] = biological target: Histamine H3 receptor (Rattus norvegicus, UniProt Q9QYN8); assay: Binding affinity to rat histamine H3 receptor by competitive binding assay
[7] = biological target: Histamine H3 receptor (Mus musculus) (UniProt P58406); assay: Inverse agonist activity at mouse histamine H3 receptor overexpressed in HEK293 cells by [35S]GTPgammaS binding assay relative to basal level; type: functional, cell-based; details: concentration not given here
Histamine H2 receptor = Histamine H2 receptor (Homo sapiens, UniProt P25021); assay: Inhibition of histamine H2 receptor
Histamine H1 receptor = Histamine H1 receptor (Homo sapiens, UniProt P35367); assay: Inhibition of histamine H1 receptor
Histamine H3 receptor [8] = biological target: T1, Histamine H3 receptor; assay: biochemical
Histamine H3 receptor [9] = biological target: T1, Histamine H3 receptor; assay: Binding affinity to mouse histamine H3 receptor overexpressed in HEK293 cells; type: cell-based
[10] = Lipophilicity, log d at pH 7.4; type: physicochemical; details: buffer
Histamine H3 receptor [11] = biological target: T1, Histamine H3 receptor; assay: Binding affinity to histamine H3 receptor in wild type mouse brain membrane; type: cell membranes

Sequence of Histamine H3 receptor (Mus musculus) (P58406 whole entry): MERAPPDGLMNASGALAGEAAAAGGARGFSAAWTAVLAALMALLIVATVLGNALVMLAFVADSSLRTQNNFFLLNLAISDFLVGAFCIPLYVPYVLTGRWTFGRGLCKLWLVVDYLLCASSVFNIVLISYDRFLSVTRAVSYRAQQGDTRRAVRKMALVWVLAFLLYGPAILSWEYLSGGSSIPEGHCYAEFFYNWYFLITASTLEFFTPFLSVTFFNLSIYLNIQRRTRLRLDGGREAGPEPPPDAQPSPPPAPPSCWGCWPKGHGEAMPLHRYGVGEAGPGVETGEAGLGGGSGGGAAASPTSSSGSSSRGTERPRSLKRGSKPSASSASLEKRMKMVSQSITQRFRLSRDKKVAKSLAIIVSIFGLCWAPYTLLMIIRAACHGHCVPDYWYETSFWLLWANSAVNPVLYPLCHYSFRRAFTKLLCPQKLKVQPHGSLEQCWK
T1 sequence (P58406 whole entry): as above
Sequence of Histamine H2 receptor (P25021 whole entry): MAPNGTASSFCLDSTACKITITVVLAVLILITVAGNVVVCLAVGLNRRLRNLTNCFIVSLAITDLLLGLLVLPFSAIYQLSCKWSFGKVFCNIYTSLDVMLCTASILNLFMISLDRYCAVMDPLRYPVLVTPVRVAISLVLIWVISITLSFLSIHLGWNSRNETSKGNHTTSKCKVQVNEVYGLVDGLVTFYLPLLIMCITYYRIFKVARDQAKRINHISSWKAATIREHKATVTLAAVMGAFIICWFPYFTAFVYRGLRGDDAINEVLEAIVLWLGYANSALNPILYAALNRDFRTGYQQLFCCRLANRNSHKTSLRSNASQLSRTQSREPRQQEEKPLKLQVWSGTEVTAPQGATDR
Sequence of Histamine H1 receptor (P35367 whole entry): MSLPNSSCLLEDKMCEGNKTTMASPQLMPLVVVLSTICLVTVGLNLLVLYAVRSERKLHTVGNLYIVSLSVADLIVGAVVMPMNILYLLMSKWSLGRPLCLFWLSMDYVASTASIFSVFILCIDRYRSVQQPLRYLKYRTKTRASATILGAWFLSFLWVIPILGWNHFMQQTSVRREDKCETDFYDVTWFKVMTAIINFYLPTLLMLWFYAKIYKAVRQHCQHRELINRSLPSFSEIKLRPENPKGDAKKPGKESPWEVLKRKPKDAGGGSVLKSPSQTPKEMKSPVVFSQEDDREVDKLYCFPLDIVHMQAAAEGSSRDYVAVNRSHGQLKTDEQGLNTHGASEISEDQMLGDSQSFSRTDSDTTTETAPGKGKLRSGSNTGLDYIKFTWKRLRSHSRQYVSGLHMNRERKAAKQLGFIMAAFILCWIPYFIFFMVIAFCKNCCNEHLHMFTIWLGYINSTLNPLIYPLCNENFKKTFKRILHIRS
Sequence of Histamine H3 receptor (Rattus norvegicus, UniProt Q9QYN8) (Q9QYN8 whole entry): as the sequence (P58406 whole entry) above, with A15T, T286A, G290A, H387R, V389I counted along it
Sequence of Histamine H4 receptor (Q9H3N8 whole entry): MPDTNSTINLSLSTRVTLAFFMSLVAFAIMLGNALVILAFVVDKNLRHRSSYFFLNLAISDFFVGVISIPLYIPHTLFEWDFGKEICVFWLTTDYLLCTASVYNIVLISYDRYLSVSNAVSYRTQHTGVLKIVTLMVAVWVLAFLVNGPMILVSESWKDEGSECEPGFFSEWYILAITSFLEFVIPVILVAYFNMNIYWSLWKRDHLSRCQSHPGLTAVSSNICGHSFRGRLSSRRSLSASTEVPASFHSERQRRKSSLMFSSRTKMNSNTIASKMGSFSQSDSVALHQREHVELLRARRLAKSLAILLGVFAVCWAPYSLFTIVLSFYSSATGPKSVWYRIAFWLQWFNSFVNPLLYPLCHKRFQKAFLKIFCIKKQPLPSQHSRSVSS

Row | SMILES | EC50 (Histamine H3 receptor [2]) [nM] | inhibition [7] [%] | Ki (Histamine H3 receptor [8]) [nM] | further results
1 | Cn1c(-c2ccc(OCCCN3CCCC3)cc2)nc2ccccc2c1=O | 9.6 | 24 | 2.4 | concentration at 2 h [1]: 134 nM; Drug uptake (Brain [3]): 2.22 nmol/g; IC50 (Histamine H4 receptor): > 10000 nM; concentration at 2 h [4]: 1360 nM; Activity (Brain [5]): Active; Ki (Histamine H3 receptor [6]): 12 nM; IC50 (Histamine H2 receptor): > 10000 nM; IC50 (Histamine H1 receptor): > 10000 nM
2 | NCCc1c[nH]cn1 [HISTAMINE] |  |  | 68 | 
3 | [3H]C([3H])([3H])n1c(-c2ccc(OCCCN3CCCC3)cc2)nc2ccccc2c1=O |  |  |  | Kd (Histamine H3 receptor [9]): 2.6 nM; logD [10]: 1.2; Kd (Histamine H3 receptor [11]): 3.1 nM
4 | NC(=NCc1ccc(Cl)cc1)SCCCc1cnc[nH]1 [CLOBENPROPIT] | 1.7 |  |  | 
5 | S=C(NC1CCCCC1)N1CCC(c2cnc[nH]2)CC1 [THIOPERAMIDE] | 11 | 27 | 4.8 | 
6 | N=C(N)SCCc1cnc[nH]1 [IMETIT] |  |  | 2 | 
7 | CNCCc1c[nH]cn1 |  |  | 19 | 
8 | N=C(NCc1ccc(Cl)cc1)SCCCc1c[nH]cn1 |  | 14 |  | 
